Reference: patent US20210352900A1, “Method for Controlling PPO Resistant Weeds” (BASF SE, priority 2016, published 2021)

Tests used:
[1] = system: Amaranthus tamariscinus (AMATA, common waterhemp), PPO resistant biotype 1 (w.2); assay: Greenhouse herbicidal activity test, PPO resistant common waterhemp biotype 1 (w.2); type: in vivo; settings: for activity on / control of resistant weeds (w.2), in words: azafenidin: in comparison to sensitive biotypes; for Weed control (%) w.2: PPO resistant biotype 1, scale 0 to 100
[2] = system: Amaranthus tamariscinus (AMATA, common waterhemp), sensitive biotype (w.1); assay: Greenhouse herbicidal activity test, sensitive common waterhemp (w.1); type: in vivo; settings: for Weed control (%) w.1: sensitive biotype, scale 0 (no damage) to 100 (complete destruction)

Row | SMILES | activity on / control of resistant weeds (w.2), in words [1] | Weed control (%) w.2 ([1]; use rate 2 g/ha) [%] | Weed control (%) w.2 ([1]; use rate 4 g/ha) [%] | activity on sensitive weeds (w.1), in words [2] | Weed control (%) w.1 ([2]; use rate 2 g/ha) [%] | Weed control (%) w.1 ([2]; use rate 4 g/ha) [%]
1 | CCc1ccc(COc2ccc(-n3c(=O)cc(C(F)(F)F)n(C)c3=O)cc2)c(OC(C)C(=O)OC)c1 (centres unmarked) [(I).1, benzfendizone] | very good activity | 89 | 92 | very good activity | 94 | 100
2 | C#CCOc1cc(-n2nc3n(c2=O)CCCC3)c(Cl)cc1Cl [azafenidin, reference compound] | much weaker control | 67 | 73 | – | 95 | 98
